Patent US20080026996A1, “Selective Vpac2 Receptor Reptide Agonists” (ELI LILLY AND COMPANY, priority 2004, published 2008)
Where a SMILES comes first, the peptide text is derived from it. Where no end group is shown, it is not given here. [ ]: non-standard residue; d: D form. The star is where a group is joined. Hexanoyl = CCCCCC(=O)*; Aib = CC(C)(N)C(=O)O

Legend:
human VPAC2 [1] = molecular target: T1, human VPAC2 (Homo sapiens, UniProt P41587); test: Alpha screen cAMP in vitro potency, human VPAC2 receptor; assay type: cell-based; details: cAMP generation; single result from two analyses performed in a single run; read-out: Human VPAC2 Receptor: Alpha Screen EC50
T1 construct: expressed in transfected cells
T1 sequence (P41587 24-438): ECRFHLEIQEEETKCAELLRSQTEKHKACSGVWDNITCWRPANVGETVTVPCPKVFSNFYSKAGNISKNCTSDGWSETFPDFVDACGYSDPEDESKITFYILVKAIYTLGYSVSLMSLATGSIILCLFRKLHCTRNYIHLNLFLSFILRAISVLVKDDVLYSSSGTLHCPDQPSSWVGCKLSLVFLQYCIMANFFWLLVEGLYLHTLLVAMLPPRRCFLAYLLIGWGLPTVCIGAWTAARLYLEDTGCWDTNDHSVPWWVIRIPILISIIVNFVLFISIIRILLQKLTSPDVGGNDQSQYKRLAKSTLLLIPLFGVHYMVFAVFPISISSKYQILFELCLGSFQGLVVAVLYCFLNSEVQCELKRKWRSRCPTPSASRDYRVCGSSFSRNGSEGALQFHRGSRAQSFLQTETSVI
How it was run: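 Under reduced light, acceptor beads accompany the stimuli during a 60-minute incubation of cells in stimulation buffer (50,000 per well point). Donor beads go in with lysis buffer for a further 60–120 minutes, and the resulting AlphaScreen signal indicates cAMP levels.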

human VPAC2 [2] = molecular target: T1, human VPAC2; test: Filter binding assay, membranes of stable VPAC2 cell line, 125I-labeled VIP tracer (Table 2); details: read-out: Human VPAC2 Receptor Binding
How it was run: (§1)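 Scintillation counting of filter-retained radioligand gave the read-out. Compounds competed with the labelled tracer (about 40000 cpm) for 2.5 μg membranes during 1 hour of shaking in HEPES pH 7.4 buffer containing 0.5% BSA.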

[3] = Rat serum stability studies (remaining active peptide by DiscoveRx cAMP on CHO-VPAC2 cells); assay type: in vitro ADME
How it was run: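 Rat serum, 18 h: +aprotinin aliquot at 4° C, no-aprotinin aliquot at 37° C. Then 30 min RT step, supernatant removed, 1 h shaking at 300 rpm. DiscoveRx cAMP kit on CHO-VPAC2; EC50 from cAMP data vs standards.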

human VPAC1 = molecular target: T2, human VPAC1 (Homo sapiens, UniProt P32241); test: Filter binding assay, membranes of cells transiently transfected with human VPAC1, 125I-labeled VIP tracer (Table 2); set-up: expressed in transfected cells; details: read-out: Human VPAC1 Receptor Binding
T2 sequence (P32241 31-457): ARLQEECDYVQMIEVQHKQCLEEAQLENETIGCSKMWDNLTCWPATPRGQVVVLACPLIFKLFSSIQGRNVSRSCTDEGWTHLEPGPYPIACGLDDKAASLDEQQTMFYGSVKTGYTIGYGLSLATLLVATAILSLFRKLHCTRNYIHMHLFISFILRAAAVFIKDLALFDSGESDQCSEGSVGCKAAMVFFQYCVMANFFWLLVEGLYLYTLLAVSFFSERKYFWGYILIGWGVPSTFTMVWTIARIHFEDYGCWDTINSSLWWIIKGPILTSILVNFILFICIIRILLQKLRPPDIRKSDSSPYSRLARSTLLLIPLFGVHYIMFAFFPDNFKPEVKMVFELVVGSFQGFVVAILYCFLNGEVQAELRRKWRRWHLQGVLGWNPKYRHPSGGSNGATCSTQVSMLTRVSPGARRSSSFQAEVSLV
How it was run: as §1

human PAC1 = molecular target: T3, human PAC1 (Homo sapiens, UniProt P41586); test: Filter binding assay, membranes of cells transiently transfected with human PAC1, 125I-labeled PACAP-27 tracer (Table 2); set-up: expressed in transfected cells; details: read-out: Human PAC1 Receptor Binding
T3 sequence (P41586 21-468): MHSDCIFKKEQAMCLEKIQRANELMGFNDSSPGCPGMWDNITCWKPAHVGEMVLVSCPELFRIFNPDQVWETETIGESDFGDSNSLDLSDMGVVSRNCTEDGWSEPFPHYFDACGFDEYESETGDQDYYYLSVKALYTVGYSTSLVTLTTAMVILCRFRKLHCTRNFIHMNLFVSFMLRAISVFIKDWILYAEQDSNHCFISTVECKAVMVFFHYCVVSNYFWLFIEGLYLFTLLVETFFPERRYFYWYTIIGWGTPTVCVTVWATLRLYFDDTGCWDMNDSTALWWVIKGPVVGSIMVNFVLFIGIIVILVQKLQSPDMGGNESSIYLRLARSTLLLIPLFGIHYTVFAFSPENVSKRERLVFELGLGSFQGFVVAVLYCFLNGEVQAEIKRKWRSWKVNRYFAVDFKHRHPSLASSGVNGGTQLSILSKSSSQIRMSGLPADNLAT
How it was run: as §1

Molecule	EC50 (human VPAC2 [1]) [nM]	IC50 (human VPAC2 [2]) [nM]	Rat Serum Stability (estimated purity in % after 18 hours) [3] [%]	IC50 (human VPAC1) [nM]	IC50 (human PAC1) [nM]
Hexanoyl-HSDAVFTDNYTRLR[Aib]QVAAAKYLQSIKNKRYGGPSSGAPPPS [Agonist P263]	0.07	0.38	11.72	2680	636
Hexanoyl-HSDAVFTDNYTRLFKQVAAKKYLQSIKNKRYGGPSSGAPPPS [Agonist P175]	0.68	13.3	<0.11	> 3000	> 25000
CCCCCC(=O)N[C@@H](Cc1c[nH]cn1)C(=O)N[C@@H](CO)C(=O)N[C@@H](CC(=O)O)C(=O)N[C@@H](C)C(=O)N[C@H](C(=O)N[C@@H](Cc1ccccc1)C(=O)N[C@H](C(=O)N[C@@H](CC(=O)O)C(=O)N[C@@H](CC(N)=O)C(=O)N[C@@H](Cc1ccc(O)cc1)C(=O)N[C@H](C(=O)N[C@@H](CCCNC(=N)N)C(=O)N[C@@H](CC(C)C)C(=O)N[C@@H](CCCNC(=N)N)C(=O)NC(C)(C)C(=O)N[C@@H](CCC(N)=O)C(=O)N[C@H](C(=O)N[C@@H](C)C(=O)N[C@@H](C)C(=O)NC(C)(C)C(=O)N[C@@H](CCCCN)C(=O)N[C@@H](Cc1ccc(O)cc1)C(=O)N[C@@H](CC(C)C)C(=O)N[C@@H](CCC(N)=O)C(=O)N[C@@H](CO)C(=O)N[C@H](C(=O)N[C@@H](CCCCN)C(=O)N[C@@H](CCC(N)=O)C(=O)N[C@@H](CCCCN)C(=O)NCC(=O)NCC(=O)N1CCC[C@H]1C(=O)N[C@@H](CO)C(=O)N[C@@H](CO)C(=O)NCC(=O)N[C@@H](C)C(=O)N1CCC[C@H]1C(=O)N1CCC[C@H]1C(=O)N1CCC[C@H]1C(=O)N[C@@H](CO)C(=O)O)[C@@H](C)CC)C(C)C)[C@@H](C)O)[C@@H](C)O)C(C)C [Agonist P294] (Hexanoyl-HSDAVFTDNYTRLR[Aib]QVAA[Aib]KYLQSIKQKGGPSSGAPPPS-OH; C-terminus assumed)	0.24	0.45	24.25	> 3000	> 25000
Hexanoyl-HSDAVFTDNYTRLQKQVAAKQYLQSIKNKRYGGPSSGAPPPS [Agonist P253]	0.46	1.78	1.27	2160	> 25000
Hexanoyl-HSDAVFTDNYTRLR[Aib]QVAAVKYLQSIKNKRYGGPSSGAPPPS [Agonist P262]	0.24	0.61	10.14	> 3000	> 25000
Hexanoyl-HSDAVFTDNYTRLQ[Aib]QVAA[Aib]KYLQSIKNKRYGGPSSGAPPPS [Agonist P302]	0.45	1.62	21.43	> 3000	> 25000
Hexanoyl-HSDAVFTDNYTRLRKQVAALKYLQSIKNKRYGGPSSGAPPPS [Agonist P151]	0.07	0.72	0.35	204	720
Hexanoyl-HSDAVFTDNYTRLRKQVAAFKYLQSIKNKRYGGPSSGAPPPS [Agonist P148]	0.1	0.77	<0.10	247	1000
Hexanoyl-HSDAVFTDNYTRLRKQVAAKQYLQSIKNKRYGGPSSGAPPPS [Agonist P183]	0.14	0.26	0.18	424	506
CCCCCC(=O)N[C@@H](Cc1c[nH]cn1)C(=O)N[C@@H](CO)C(=O)N[C@@H](CC(=O)O)C(=O)N[C@@H](C)C(=O)N[C@H](C(=O)N[C@@H](Cc1ccccc1)C(=O)N[C@H](C(=O)N[C@@H](CC(=O)O)C(=O)N[C@@H](CCC(N)=O)C(=O)N[C@@H](Cc1ccc(O)cc1)C(=O)N[C@H](C(=O)N[C@@H](CCCNC(=N)N)C(=O)N[C@@H](CC(C)C)C(=O)N[C@@H](CCCNC(=N)N)C(=O)N[C@@H](CCCNC(=N)N)C(=O)N[C@@H](CCC(N)=O)C(=O)N[C@H](C(=O)N[C@@H](C)C(=O)N[C@@H](C)C(=O)N[C@@H](CCCNC(=N)N)C(=O)N[C@@H](CCCCN)C(=O)N[C@@H](Cc1ccc(O)cc1)C(=O)N[C@@H](CC(C)C)C(=O)N[C@@H](CCC(N)=O)C(=O)N[C@@H](CO)C(=O)N[C@H](C(=O)N[C@@H](CCCNC(=N)N)C(=O)N[C@@H](CCC(N)=O)C(=O)NCC(=O)NCC(=O)N1CCC[C@H]1C(=O)N[C@@H](CO)C(=O)N[C@@H](CO)C(=O)NCC(=O)N[C@@H](C)C(=O)N1CCC[C@H]1C(=O)N1CCC[C@H]1C(=O)N1CCC[C@H]1C(=O)N[C@@H](CO)C(=O)O)[C@@H](C)CC)C(C)C)[C@@H](C)O)[C@@H](C)O)C(C)C [Agonist P220] (Hexanoyl-HSDAVFTDQYTRLRRQVAARKYLQSIRQGGPSSGAPPPS-OH; C-terminus assumed)	0.12	0.25	0.08	5.86	849
CCCCCC(=O)N[C@@H](Cc1c[nH]cn1)C(=O)N[C@@H](CO)C(=O)N[C@@H](CC(=O)O)C(=O)N[C@@H](C)C(=O)N[C@H](C(=O)N[C@@H](Cc1ccccc1)C(=O)N[C@H](C(=O)N[C@@H](CC(=O)O)C(=O)N[C@@H](CC(N)=O)C(=O)N[C@@H](Cc1ccc(O)cc1)C(=O)N[C@H](C(=O)N[C@@H](CCCNC(=N)N)C(=O)N[C@@H](CC(C)C)C(=O)N[C@@H](CCCNC(=N)N)C(=O)NC(C)(C)C(=O)N[C@@H](CCC(N)=O)C(=O)N[C@H](C(=O)N[C@@H](C)C(=O)N[C@@H](C)C(=O)N[C@@H](CCCCN)C(=O)NC(C)(C)C(=O)N[C@@H](Cc1ccc(O)cc1)C(=O)N[C@@H](CC(C)C)C(=O)N[C@@H](CCC(N)=O)C(=O)N[C@@H](CO)C(=O)N[C@H](C(=O)N[C@@H](CCCCN)C(=O)N[C@@H](CCC(N)=O)C(=O)NCC(=O)NCC(=O)N1CCC[C@H]1C(=O)N[C@@H](CO)C(=O)N[C@@H](CO)C(=O)NCC(=O)N[C@@H](C)C(=O)N1CCC[C@H]1C(=O)N1CCC[C@H]1C(=O)N1CCC[C@H]1C(=O)N[C@@H](CO)C(=O)O)[C@@H](C)CC)C(C)C)[C@@H](C)O)[C@@H](C)O)C(C)C [Agonist P298] (Hexanoyl-HSDAVFTDNYTRLR[Aib]QVAAK[Aib]YLQSIKQGGPSSGAPPPS-OH; C-terminus assumed)	0.5	8.2	30.97	> 3000	> 25000
Hexanoyl-HSDAVFTDNYTRL[Aib]KQVAAQKYLQSIKNKRYGGPSSGAPPPS [Agonist P243]	0.28	5.51	12.12	> 3000	> 25000
